# Experimental data from patent US5637582A, “Peripheral circulation improving agent” (priority 1992, dated 1997).
# Experiments:
# femoral artery [1] = assay: Time course of femoral arterial blood flow in dogs after i.v. administration (Experimental Example 2); format: in vivo, dog
# arterial blood pressure = assay: Change of arterial blood pressure in anesthetized dogs (Experimental Example 4); conditions: 100 μg/kg i.v.
# Experimental: Each test compound was intravenously administered to adult dogs (one group consisting of 2 or 4 dogs) under anesthesia and artificial respiration at a dose of 100 μg/kg body weight. Femoral arterial blood flow, vertebral arterial blood flow and arterial blood pressure were measured 1, 3, 5, 10, 20 and 30 minutes after the administration. The femoral arterial blood flow and vertebral arterial blood flow were measured with an electromagnetic blood flowmeter (manufactured by Nihon Koden, MFV-2100, trade name) through a flow probe attached to the femoral artery or vertebral artery. The arterial blood pressure was measured with a pressure transducer (manufactured by Millar, MICRO-TIP, Model SPC-350) through a catheter attached to the brachial artery.
# Changes of the femoral arterial blood flow, vertebral arterial blood flow and arterial blood pressure were estimated by comparing the values measured before and after the administration of the test compound.
# femoral artery [2] = assay: Femoral arterial blood flow, hind leg cooling model of Raynaud's disease (Experimental Example 5); format: in vivo, male SD rat
# Experimental: (Lower limbs peripheral circulation disorder model due to hind leg cooling: Model of Raynaud's disease)
# A catheter was inserted into left common carotid artery of a male SD rat (one group consisting of 5 rats) under anesthesia, and the arterial blood pressure was measured with a standard pressure transducer (manufactured by Nihon Koden. TP-200T, trade name) through a catheter attached to the artery. After isolating the left femoral artery from the peripheral connective tissue, a flow probe (HDP 10-20R: F 1.0 mm) of a Doppler blood flow meter (manufactured by Crystal Biotec Co., PD20, trade name) was attached thereto and was connected to the Doppler blood flow meter to measure the artery blood flow. After the operation, at the time that the state became stable, the left hind leg was exposed to a perfused solution at 10° C. to decrease the femoral arterial blood flow. After 30 minutes, 1 ml/kg of a 0.9% NaCl solution or 300 μg/kg of the test compound A was intravenously administered and the state was observed. In the case of Beraprost Na, continuous injection in an amount of […] was carried out after 30 minutes from cooling. The compounds to be used were each dissolved in a 0.9% NaCl solution.
# The present model is disclosed, for example, in Nishio et al, "Effect of Beraprost Sodium on Peripheral Circulatory Disturbances Induced by Various Stimuli", Arzneim.-Forsch./Drug Res., 39 (II), Nr. 10 (1989), pp. 1229-1234. Note particularly the section "2.4. Sphygmometry in rat hind paw", at page 1230.
# mouse = assay: Acute oral toxicity in mouse; format: in vivo; conditions: 1000 mg/kg oral, even after 2 days
# Text: Furthermore, a (-)-cis-1,5-benzothiazepine derivative according to formula (I) has low toxicity and can be used safely.
compound,measurement,setting,value
CC(=O)O[C@@H]1C(=O)N(CCN(C)C)c2ccc(C)cc2S[C@@H]1c1ccc(C)cc1 [Compound A],Blood flow (femoral artery),"femoral artery [1]; 100 μg/kg i.v., 30 min",136.3 mL/min
same,Increase in blood flow (femoral artery),"femoral artery [1]; 100 μg/kg i.v., 30 min",55.5 mL/min
same,Blood flow (femoral artery),"femoral artery [1]; 100 μg/kg i.v., 60 min",146.3 mL/min
same,Increase in blood flow (femoral artery),"femoral artery [1]; 100 μg/kg i.v., 60 min",65.5 mL/min
same,Blood flow (femoral artery),"femoral artery [1]; 100 μg/kg i.v., 120 min",143.5 mL/min
same,Increase in blood flow (femoral artery),"femoral artery [1]; 100 μg/kg i.v., 120 min",62.8 mL/min
same,Blood flow (femoral artery),"femoral artery [1]; 100 μg/kg i.v., 180 min",141.3 mL/min
same,Increase in blood flow (femoral artery),"femoral artery [1]; 100 μg/kg i.v., 180 min",60.5 mL/min
same,Blood flow (femoral artery),"femoral artery [1]; 100 μg/kg i.v., 240 min",141.5 mL/min
same,Increase in blood flow (femoral artery),"femoral artery [1]; 100 μg/kg i.v., 240 min",60.8 mL/min
same,Blood flow (femoral artery),"femoral artery [1]; 100 μg/kg i.v., 300 min",136.3 mL/min
same,Increase in blood flow (femoral artery),"femoral artery [1]; 100 μg/kg i.v., 300 min",55.5 mL/min
same,Blood flow (femoral artery),femoral artery [1]; before administration (baseline),80.8 mL/min
same,Arterial Blood Pressure change (side effects),arterial blood pressure; 1 min,-1.3 ΔmmHg
same,Arterial Blood Pressure change (side effects),arterial blood pressure; 3 min,-0.8 ΔmmHg
same,Arterial Blood Pressure change (side effects),arterial blood pressure; 5 min,-1.8 ΔmmHg
same,Arterial Blood Pressure change (side effects),arterial blood pressure; 10 min,-1.8 ΔmmHg
same,Arterial Blood Pressure change (side effects),arterial blood pressure; 20 min,-2.3 ΔmmHg
same,Arterial Blood Pressure change (side effects),arterial blood pressure; 30 min,-0.5 ΔmmHg
same,effect on arterial blood pressure,"arterial blood pressure; G and H: one minute after, in words",substantially no effect
same,Femoral Arterial Blood Flow change,femoral artery [2]; 0 min (before cooling and administration; 30 min = 0),1.364 Δ ml/min
same,Femoral Arterial Blood Flow change,"femoral artery [2]; 40 min, given at 30 min: A 300 μg/kg i.v., J 0.3 μg/kg/ml continuous injection",0.072 Δ ml/min
same,Femoral Arterial Blood Flow change,"femoral artery [2]; 50 min, given at 30 min: A 300 μg/kg i.v., J 0.3 μg/kg/ml continuous injection",0.276 Δ ml/min
same,Femoral Arterial Blood Flow change,"femoral artery [2]; 60 min, given at 30 min: A 300 μg/kg i.v., J 0.3 μg/kg/ml continuous injection",0.416 Δ ml/min
same,Femoral Arterial Blood Flow change,"femoral artery [2]; 70 min, given at 30 min: A 300 μg/kg i.v., J 0.3 μg/kg/ml continuous injection",0.452 Δ ml/min
same,Femoral Arterial Blood Flow change,"femoral artery [2]; 80 min, given at 30 min: A 300 μg/kg i.v., J 0.3 μg/kg/ml continuous injection",0.452 Δ ml/min
same,Femoral Arterial Blood Flow change,"femoral artery [2]; 90 min, given at 30 min: A 300 μg/kg i.v., J 0.3 μg/kg/ml continuous injection",0.496 Δ ml/min
same,lethal toxicity,mouse,no lethal toxicity was observed
